The target of one experiment is T1, human LXRα (Homo sapiens, UniProt Q13133).
T1 construct: biotin (biotinylated); made in house; host or cells: E. coli (crude extract)
T1 sequence (Q13133 1-447): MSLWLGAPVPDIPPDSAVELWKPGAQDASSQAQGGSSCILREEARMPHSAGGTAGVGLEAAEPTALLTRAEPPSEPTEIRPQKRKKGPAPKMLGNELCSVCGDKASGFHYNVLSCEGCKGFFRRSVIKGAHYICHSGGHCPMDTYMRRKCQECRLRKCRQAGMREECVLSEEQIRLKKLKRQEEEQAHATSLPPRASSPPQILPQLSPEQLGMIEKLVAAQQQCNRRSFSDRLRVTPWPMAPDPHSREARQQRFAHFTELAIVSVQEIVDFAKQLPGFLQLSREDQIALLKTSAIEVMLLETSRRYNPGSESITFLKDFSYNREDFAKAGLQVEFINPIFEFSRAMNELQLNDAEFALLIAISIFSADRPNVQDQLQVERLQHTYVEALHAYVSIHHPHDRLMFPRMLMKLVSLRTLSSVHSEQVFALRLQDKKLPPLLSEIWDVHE
Briefly: Ligand-binding test procedure for human LXRα (3H T0901317 tracer, flash plates). Conditions: biotinylated hLXRα from E. coli extract; tracer 3H T0901317. In short, it runs like this: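 Biotinylated hLXRα from E. coli extract (50 mM Tris) captured on streptavidin flash plates overnight at 4 °C. Compound dilution series mixed with 5 nM [3H]T0901317 (concentration before mixing), incubated overnight at 4 °C; wells aspirated, washed and remaining radioactivity counted.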

The next experiment concerns ABCA1 gene. The experiment is described as follows: Quantitative analysis of ABCA1 gene regulation in THP-1 cells (real-time PCR). It is filed as cell-based, human. Particulars: Gene regulation by LXR (Human), differentiated THP-1 cells, 18 hrs; for EC50: ABCA1 mRNA, read-out: EC50 ABCA1; for Emax: LXR agonist reference at 1.0 uM as positive control, read-out: Agonism ABCA1. As to the method: III. Quantitative Analysis of ABCA1 Gene Regulation in THP-1 Cells. The compounds of formula (I) effect on the regulation of the ABCA1 gene was evaluated using the following procedure. Materials and Methods Cell culture: The THP-1 monocytic cell line (ATCC #TIB-202) was obtained from American Type Culture Collection (Manassas, Va.) and cultured in RPMI 1640 medium (Gibco, Carlsbad, Calif.) containing 10% FBS, 2 mM L-glutamine, and 55 uM beta-Mercaptoethanol (BME). […] Louis, Mo.) for three days to induce differentiation into adherent macrophages. Differentiated THP-1 cells were treated with test compounds or ligands dissolved in DMSO (Sigma, D-8779) in culture medium lacking phorbal ester. […] Dose response effects were measured in duplicate, in the range of 0.001 to 30 micromolar concentrations and treated cells were incubated for an additional 18 hrs prior to RNA isolation. Unstimulated cells treated with vehicle were included as negative controls on each plate. […] L., J. Med. Chem. (2000), 45:1963-1966.). Results of antagonist analysis are expressed as % antagonism and IC50 (in μM). RNA isolation and quantitation: Total cellular RNA was isolated from treated cells cultured in 96-well plates using PrepStation 6100 (Applied Biosystems, Foster City, Calif.), according to the manufacturer's recommendations. RNA was resuspended in ribonuclease-free water and stored at -70° C. prior to analysis. RNA concentrations were quantitated with RiboGreen test procedure, #R-11490 (Molecular Probes, Eugene, Oreg.). Gene expression analysis: Gene-specific mRNA quantitation was performed by real-time PCR with the Perkin Elmer Corp. chemistry on an ABI Prism 7700 Sequence detection system (Applied Biosystems, Foster City, Calif.) according to the manufacturer's instructions. Samples (50-100 ng) of total RNA were assayed in duplicate or triplicate in 50 ul reactions using one-step RT-PCR and the standard curve method to estimate specific mRNA concentrations. Sequences of gene-specific primer and probe sets were designed with Primer Express Software (Applied Biosystems, Foster City, Calif.). […] Relative levels of ABCA1 mRNA are normalized using GAPDH mRNA or 18S rRNA probe/primer sets purchased commercially (Applied Biosystems, Foster City, Calif.). Statistics: Mean, standard deviation and statistical significance of duplicate evaluations of RNA samples were assessed using ANOVA, one-way analysis of variance using SAS analysis. Reagents: -GAPDH Probe and Primers-Taqman GAPDH Control Reagents 402869 or 4310884E 18S Ribosomal RNA-Taqman 18S Control Reagents 4308329 […] Qiagen Quantitect probe RT-PCR 204443.
(In general: In qPCR the cycle at which signal appears reflects the starting amount.)

The target of the next experiment is T2, human LXRβ (Homo sapiens, UniProt P55055).
T2 construct: biotin (biotinylated); made in house; host or cells: E. coli (crude extract)
T2 sequence (P55055 1-460): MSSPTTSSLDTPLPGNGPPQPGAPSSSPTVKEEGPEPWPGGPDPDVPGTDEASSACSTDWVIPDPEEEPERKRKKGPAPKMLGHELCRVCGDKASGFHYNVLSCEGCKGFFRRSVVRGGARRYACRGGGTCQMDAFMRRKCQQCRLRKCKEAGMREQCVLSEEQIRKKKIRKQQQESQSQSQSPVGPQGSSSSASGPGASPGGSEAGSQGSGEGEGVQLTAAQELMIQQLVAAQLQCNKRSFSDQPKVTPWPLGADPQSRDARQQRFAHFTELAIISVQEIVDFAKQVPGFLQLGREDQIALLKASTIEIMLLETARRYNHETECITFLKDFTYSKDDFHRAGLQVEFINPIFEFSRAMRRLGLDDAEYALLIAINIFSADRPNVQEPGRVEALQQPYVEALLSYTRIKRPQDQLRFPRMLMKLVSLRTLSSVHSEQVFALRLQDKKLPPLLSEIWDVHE
The experiment is described as follows: Ligand-binding test procedure for human LXRβ (3H T0901317 tracer, flash plates). Particulars: biotinylated hLXRβ from E. coli extract; tracer 3H T0901317. In short, it runs like this:
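Biotinylated hLXRβ from E. coli extract was captured on streptavidin flash plates (Bmax ~4000 cpm) at 4 °C overnight. Test ligand dilutions were mixed with 5 nM [3H]T0901317 tracer solution and incubated on the plates overnight at 4 °C; bound radioactivity was counted after washing.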

With `CC(C)(C)c1nc2c(C(F)(F)F)cccn2c1-c1cccc(Oc2cccc(S(=O)(=O)CCCO)c2)c1` [Example 78, 3-[(3-{3-[2-tert-butyl-8-(trifluoromethyl)imidazo[1,2-a]pyridin-3-yl]phenoxy}phenyl)sulfonyl]propan-1-ol], the half-maximal inhibitory concentration (IC50) at human LXRα amounted to 167 nM; at human LXRβ, 9 nM. The EC50 in the experiment with ABCA1 gene stood at 1460 nM. For the same compound, in the experiment on ABCA1 gene, the Emax was found to be 92%.

On human LXRα, `CC(C)c1nc2c(C(F)(F)F)cccn2c1-c1cccc(Oc2cccc(S(=O)(=O)CCCO)c2)c1` [Example 61, 3-[(3-{3-[2-isopropyl-8-(trifluoromethyl)imidazo[1,2-a]pyridin-3-yl]phenoxy}phenyl)sulfonyl]propan-1-ol] had an IC50 of 456 nM. For the same compound, in the experiment on ABCA1 gene, the EC50 worked out at 1640 nM and the Emax was found to be 60%. This compound also had an IC50 at human LXRβ of 19.8 nM.

As for `CCS(=O)(=O)c1cccc(Oc2cccc(-c3c(C(C)(C)C)nc4c(C#N)cccn34)c2)c1` [Example 79, 2-tert-butyl-3-{3-[3-(ethylsulfonyl)phenoxy]phenyl}imidazo[1,2-a]pyridine-8-carbonitrile], the IC50 was determined as 745 nM on human LXRα and 23.7 nM on human LXRβ. Besides, in the experiment on ABCA1 gene, the EC50 was 285 nM. In the experiment on ABCA1 gene, the Emax stood at 60%.

For `CC(C)c1nc2c(C(F)(F)F)cccn2c1-c1ccc(Oc2cccc(S(C)(=O)=O)c2)cc1` [Example 119, 2-(1-methylethyl)-3-{4-[3-(methylsulfonyl)phenoxy]phenyl}-8-(trifluoromethyl)imidazo[1,2-a]pyridine], the IC50 at human LXRα was above 1000 nM; on human LXRβ, 179 nM. The EC50 with ABCA1 gene stood at 620 nM. The Emax in the experiment with ABCA1 gene is 59%.

For `COc1ccccc1-c1nc2c(C(F)(F)F)cccn2c1-c1ccc(Oc2cccc(S(C)(=O)=O)c2)cc1` [Example 126, 2-(2-methoxyphenyl)-3-{4-[3-(methylsulfonyl)phenoxy]phenyl}-8-(trifluoromethyl)imidazo[1,2-a]pyridine], the IC50 was 290 nM at human LXRα and 14 nM at human LXRβ. In addition, in the experiment with ABCA1 gene, the EC50 is 25 nM. The Emax with ABCA1 gene was 30%.

Turning to `CCc1nc2c(C(F)(F)F)cccn2c1-c1cccc(Oc2cccc(S(=O)(=O)C(C)C)c2)c1` [Example 20, 2-ethyl-3-(3-(3-(isopropylsulfonyl)phenoxy)phenyl)-8-(trifluoromethyl)imidazo[1,2-a]pyridine], the IC50 worked out at 281 nM at human LXRα and 14 nM on human LXRβ. The EC50 in the experiment on ABCA1 gene came out at 70 nM. Further, the Emax in the experiment on ABCA1 gene was determined as 101%.

`CCc1nc2c(C(F)(F)F)cccn2c1-c1cccc(Oc2cccc(S(=O)(=O)CC)c2)c1` [Example 18, 2-ethyl-3-(3-(3-(ethylsulfonyl)phenoxy)phenyl)-8-(trifluoromethyl)imidazo[1,2-a]pyridine] showed an IC50 on human LXRα of 321 nM. In the experiment with ABCA1 gene, the EC50 was 110 nM and the Emax was 118%. This compound also showed an IC50 at human LXRβ of 14 nM.

On to `CC(C)c1nc2c(C#N)cccn2c1-c1cccc(Oc2cccc(S(=O)(=O)C(C)C)c2)c1` [Example 74, 2-isopropyl-3-{3-[3-(isopropylsulfonyl)phenoxy]phenyl}imidazo[1,2-a]pyridine-8-carbonitrile], for which the IC50 at human LXRα worked out at 1260 nM; on human LXRβ it was 24 nM. Further, the EC50 with ABCA1 gene stood at 560 nM. The Emax in the experiment on ABCA1 gene amounted to 97%.

`CCc1nc2c(C(F)(F)F)cccn2c1-c1cccc(Oc2cccc(S(=O)(=O)CCCO)c2)c1` [Example 21] gave an IC50 at human LXRα of 520 nM. Moreover, in the experiment with ABCA1 gene, the EC50 worked out at 771 nM and the Emax turned out to be 111%. The 50% inhibitory concentration (IC50) at human LXRβ is 44 nM.

What is called IC50 is the concentration needed to halve the response being measured. Lower therefore signals higher potency. As a reminder, the EC50 is the concentration that produces a half-maximal response.

Values taken from patent publication US20110112135A1, “Imidazo [1,2-A] Pyridine Compounds” (priority 2007, published 2011).
